Values quoted from earlier work in EP1982712A1 (priority 2005, dated 2007).

Conditions: for Clearance (route of elimination) / distribution volumes / time to reach the maximum concentration: in vivo; for time to reach the maximum concentration: po

| distribution volumes | time to reach the maximum concentration | bioavailability (after oral administration) | SMILES | Clearance (route of elimination) |
| --- | --- | --- | --- | --- |
| 0.7 to 1 L/kg | two | – | OC(Cn1cncn1)(Cn1cncn1)c1ccc(F)cc1F [fluconazole, Fluconazole] | eliminated in a higher proportion in urine |
| about 10.7 l/kg | up to four | about 50% | CCC(C)n1ncn(-c2ccc(N3CCN(c4ccc(OCC5COC(Cn6cncn6)(c6ccc(Cl)cc6Cl)O5)cc4)CC3)cc2)c1=O (stereo not shown) [itraconazole, Itraconazole] | cleared mainly through hepatic metabolism |
